Assay results from ChEMBL document CHEMBL1154395, “Modulations of the amide function of the preferential dopamine D3 agonist (R,R)-S32504: improvements of affinity and selectivity for D3 versus D2 receptors” (Bioorg Med Chem Lett, 2009).

Experiments:
[1] = target: D(2) dopamine receptor (Homo sapiens, UniProt P14416); assay: Displacement of [3H]spiperone form human cloned dopamine D2L receptor expressed in CHO cells; type: cell-based
[2] = target: T1, D(3) dopamine receptor (Homo sapiens, UniProt P35462); assay: Displacement of [3H]spiperone form human cloned dopamine D3 receptor expressed in CHO cells; type: cell-based
T1 sequence (P35462 whole entry): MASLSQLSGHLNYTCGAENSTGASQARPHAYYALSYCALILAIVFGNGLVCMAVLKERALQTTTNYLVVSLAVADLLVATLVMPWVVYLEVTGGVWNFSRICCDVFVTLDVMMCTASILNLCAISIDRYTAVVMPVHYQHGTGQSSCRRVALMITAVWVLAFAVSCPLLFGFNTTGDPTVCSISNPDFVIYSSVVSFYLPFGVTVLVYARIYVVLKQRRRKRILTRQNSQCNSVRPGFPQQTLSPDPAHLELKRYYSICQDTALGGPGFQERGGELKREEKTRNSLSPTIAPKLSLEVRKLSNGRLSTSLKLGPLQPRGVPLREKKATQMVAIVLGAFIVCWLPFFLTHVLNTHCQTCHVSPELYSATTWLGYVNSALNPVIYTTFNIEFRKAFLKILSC

[3] = organism: Homo sapiens; assay: Selectivity ratio of Ki for human dopamine D2 receptor to Ki for human dopamine D3 receptor
[4] = target: T1, D(3) dopamine receptor; assay: Activation of human dopamine D3 receptor expressed in CHO cells assessed as [35S]GTPgammaS binding by scintillation proximity assay; type: functional, cell-based

Sequence of D(2) dopamine receptor (P14416 whole entry): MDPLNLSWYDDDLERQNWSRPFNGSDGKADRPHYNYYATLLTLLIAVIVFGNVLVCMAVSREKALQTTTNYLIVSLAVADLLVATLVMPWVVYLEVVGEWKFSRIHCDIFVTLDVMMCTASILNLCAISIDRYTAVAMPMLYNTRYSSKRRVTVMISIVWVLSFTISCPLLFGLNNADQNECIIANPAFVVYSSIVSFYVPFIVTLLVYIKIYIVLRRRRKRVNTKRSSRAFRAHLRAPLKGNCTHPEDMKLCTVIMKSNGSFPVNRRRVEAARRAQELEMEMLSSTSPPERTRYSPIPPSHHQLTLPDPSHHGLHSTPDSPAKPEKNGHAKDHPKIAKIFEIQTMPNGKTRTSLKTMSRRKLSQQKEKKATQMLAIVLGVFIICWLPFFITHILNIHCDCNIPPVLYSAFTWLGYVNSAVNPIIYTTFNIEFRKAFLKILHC

SMILES | Ki [1] [nM] | Ki [2] [nM] | Ratio Ki [3] | EC50 [4] [nM]
CCCN1CCO[C@@H]2c3cc4c(cc3CC[C@H]21)CN(C)C4=O | > 10000 | 2190 | – | –
CCCN1CCO[C@H]2c3cc(C(N)=O)ccc3CC[C@@H]21 | > 10000 | 2450 | – | –
CCCN1CCO[C@@H]2c3cc(-c4nnn[nH]4)ccc3CC[C@H]21 | > 10000 | > 10000 | – | –
CCCN1CCO[C@@H]2c3cc4c(cc3CC[C@H]21)CCNC4=O | 776 | – | – | –
CCCN1CCO[C@@H]2c3cc(C(=O)NC)ccc3CC[C@H]21 | 7940 | > 10000 | – | –
CCCN1CCO[C@@H]2c3cc(C(C)=O)ccc3CC[C@H]21 | 3090 | 95.5 | 32 | –
CCCN1CCO[C@@H]2c3cc(C#N)ccc3CC[C@H]21 | 794 | 39.8 | 20 | –
CCCN1CCO[C@@H]2c3cc(C(=O)N(C)C)ccc3CC[C@H]21 | 1860 | > 10000 | – | –
CCCCNC(=O)c1ccc2c(c1)[C@H]1OCCN(CCC)[C@@H]1CC2 | 4570 | > 10000 | – | –
CCCN1CCO[C@@H]2c3cc4c(cc3CC[C@H]21)CCOC4=O | 1480 | 120 | 12.5 | –
CCCN1CCO[C@@H]2c3cc4c(=O)[nH]ccc4cc3CC[C@H]21 | 1200 | – | – | –
CCCN1CCO[C@@H]2c3cc(C(=O)NCc4ccc(OC)cc4)ccc3CC[C@H]21 | 3390 | > 10000 | – | –
CCCN1CCO[C@@H]2c3cc(C(=O)Nc4ccc(OC)cc4)ccc3CC[C@H]21 | > 10000 | 2750 | – | –
CCCN1CCO[C@@H]2c3cc(C(=O)O)ccc3CC[C@H]21 | > 10000 | 3310 | – | –
CCCN1CCO[C@@H]2c3cc4c(cc3CC[C@H]21)COC4=O | 2040 | – | – | –
CCCN(CCC)CCc1cccc2c1CC(=O)N2 [ROPINIROLE] | 692 | – | – | –
CCCN1CCOC2c3cc(C(N)=O)ccc3CCC21 (racemic) | 759 | 19.5 | 40 | –
CCCN1CCO[C@@H]2c3cc(C(=O)OCC)ccc3CC[C@H]21 | – | 2630 | – | –
CCCN1CCO[C@@H]2c3cc(C(N)=O)ccc3CC[C@H]21 | 1200 | 14.8 | 80 | 2.29
CCCN1CCO[C@@H]2c3cc(C(=O)OC)ccc3CC[C@H]21 | > 1000 | > 10000 | – | –
